In patent publication US20190008810A1, “METHOD FOR PREVENTION, TREATMENT AND ALLEVIATION OF INFECTIOUS DISEASES AND DISORDERS” (REPLICON HEALTH OY, priority 2016, published 2019):

Legend:
CRP [1] = assay: Blood CRP in healthy mice, 4-day test; assay type: in vivo; settings: 65 mg/kg/day in chow, 4 days, N=8; pairwise one-sided t-test p-value=0.04
Method: (§1) In this Example, CRP results from 3 separate preclinical tests are presented and analyzed. First 4-day CRP test was conducted with 8 healthy mice using individuals as their own controls. Second 7-day CRP test was conducted in discontinuous disease model. And third also 7-day CRP test was conducted in continuous disease model. CRP present in mouse serum samples were analyzed using mouse CRP ELISA kit (GWB-3B960E, Genway Biotech Inc.). All blood samples were collected at the same time of the day.
For evaluating possible effect of the DGA Activation in health, a 4-day test with healthy mice in Charles River Labs, Kuopio test facilities were conducted. In this test (prior initiation of the MPTP -model) the DGA was mixed into chow at the concentration of 65 mg/kg/day.

intraocular pressure = assay: Intraocular pressure (IOP) in glaucoma, S1; assay type: in vivo, human
Excerpt: FIG. 12: Numerical values of the reduction in IOP in Glaucoma after DGA Administration.
The same seems to be true for the efficacy of glaucoma therapy in FIG. 12.

cortisol, TSH, T4 = assay: Blood cortisol, TSH and T4 in healthy human volunteers, Example 5a; assay type: in vivo
Method: Blood levels of cortisol, thyroid stimulating hormone (TSH) and thyroxin, i.e. thyroid hormone T4 (T4) from standard EDTA blood sample were measured. 0-control and 2 day follow up measurement were conducted at approximately 08.55 am and the same day, 1.5 hour follow up, at 10:25 am. All measurements were conducted in “half fasting” state, i.e. half of the normal breakfast eaten 1.5 hours before the collection of the blood sample, and the other “half” immediately after 0-control measurement. First measurement without the DGA Activation served as the 0-control for both follow up measurements with the DGA Activation. First “DGA measurement” was conducted after 1.5 hours from 0-control (“fast effect”) and the second after 2 days (“persistent effect”). […] Last dose was 300 mg of D-glyceric acid mixed into water (or 430 mg of D-glyceric acid calcium salt dehydrate mixed into water), and otherwise the daily dose was 2*225 mg D-glyceric acid calcium salt dehydrate mixed into water. Male volunteers S1 and S9 weigh 75 kg and 80 kg respectfully.

CRP [2] = assay: Blood CRP in discontinuous MPTP/PD disease model; assay type: in vivo, mice
Method: as §1
In two other CRP tests, the effect of the DGA Activation in two disease models, continuous vs. discontinuous was analyzed. In FIG. 4b, results from discontinuous MPTP/PD disease model, and in FIG. 4c, results from continuous IPA/Dry Eye disease model. Logarithmic change of blood CRP during the 7-day disease follow up period of each mouse in all groups was calculated and the averages are presented in FIGS. 4b and 4c. (In both disease models, there was a 4-day priming with 50% DGA dose before activating the disease model and CRP test.)
Brief description of the disease models: 1) continuous IPA -model (see Example 1a) and 2) discontinuous MPTP/PD -model. MPTP (1-methyl-4-phenyl-1,2,3,6-tetrahydropyridine) is a neurotoxin precursor to MPP+, which causes symptoms of Parkinson's disease (PD). […] Diet consumption per cage is monitored carefully before and during the study follow-up period. […]

[3] = system: acute upper respiratory infection (nose and throat); assay: Healing from acute upper respiratory infection in S1, Example 1c; assay type: in vivo, human
Excerpt: After successful healing process in November 2014 (Example 1b), S1 was almost excited when they got acute upper respiratory infection when traveling abroad around New Year 2015. Symptoms: a virus infection in throat and rhinitis had lasted for three days before initiation of the DGA activation. S1 felt also feverish during this three-day period (unfortunately there was no thermometer around during the travel).
Administration on the fourth day of the infection: In the morning at 0940 am S1 took 2×250 mg of D-glyceric acid calcium salt dehydrate mixed into the water. Now, swelling and aching of the throat was quite substantial like had been the case already on the previous night, also some fever was felt.
At 0330 pm S1 took 2×180 mg of D-glyceric acid calcium salt mixed into water to keep the DGA Activation alive. Swelling had reduced a little but this could be due to circadian variation. Third dose of the day (2×180 mg) was received at 0915 pm. Throat continued to feel better towards the night, alleviation of the symptoms compared to the morning and to the previous night was significant.
Next morning at 0715 1×200 mg was received. […] However, some swelling in the throat remained but no pain. On top of the DGA Activation 1×500 mg of paracetamol was received at 0840 am, mimicking combination medication like e.g. Tylenol Cold.
Second 1×200 mg dose was received at 0200 pm. […]

[4] = system: seasonal flu or similar infectious disease; assay type: in vivo, human

For `O=C(O)[C@H](O)CO` [DGA, D-glyceric acid], which “blood CRP vs own starting level” value (CRP [1]) is on record?
The value was “overall decline in CRP was statistically significant”.

And the “IOP reduction, sufficiency of acute dose” value (intraocular pressure; acute dose 1*200 mg)?
Its value is “not necessarily sufficient”.

What about the “IOP compared to relevant control measurement” value (intraocular pressure; first measurement under the full DGA Activation) of the same molecule?
The value was “very significant reduction in IOP”.

What about the “TSH decline, fast effect” value (cortisol, TSH, T4; 1.5 hours) of the same molecule?
The value was −24%.

And the “decline of blood cortisol, fast effect” value (cortisol, TSH, T4; 1.5 hours after dose, both S1 and S9)?
The value was “more than 22%”.

What about the “T4, average change from 0-control” value (cortisol, TSH, T4; S1 and S9) of the same molecule?
Its value is “less than 1%”.

What about the “decrease in blood cortisol” value (cortisol, TSH, T4; S1 and S9) of the same molecule?
The value was 20-40%.

What about the TSH decline (cortisol, TSH, T4; after 2 days) of the same molecule?
The TSH decline was −13%.

And the “survival and health parameters” value (CRP [2]; 4+7-day administration)?
The value was “improved survival and health parameters”.

What about the “blood CRP change vs 0-control” value (CRP [2]; 7-day follow up after 4-day priming, p-value=0.015, pairwise p-value=0005) of the same molecule?
Its value is “declined statistically significantly”.

What about the fever next morning ([3]; S1, morning after first day of dosing) of the same molecule?
Its fever next morning is “No fever was observed”.

And the “time to conquer the acute upper respiratory infection” value ([3]; S1, started on fourth day of infection, 2×250 mg then 2×180 mg doses)?
The value was 12 to 48 h.

What about the “time to alleviation of all symptoms of two-week long infection” value ([4]; S1) of the same molecule?
Its value is 24 h.

And the “time to visible alleviation” value ([4]; S1)?
The value was 12 to 24 h.

And the “body temperature (fever)” value ([4]; S1, Monday 0130 pm after 2 doses of 3×200 mg Sunday night and 2×200 mg Monday morning, 37.0 on Sunday)?
Its value is 36.62 celcius.

And the body temperature ([4]; S1, Monday 0700 pm)?
The body temperature was 36.61 celcius.

What about the “time until prolonged mild disease state disappeared” value ([4]; human, in vivo) of the same molecule?
Its value is 2 days.
